In article PMC10141580, “Cyclic Dichalcogenides Extend the Reach of Bioreductive Prodrugs to Harness Thiol/Disulfide Oxidoreductases: Applications to seco-Duocarmycins Targeting the Thioredoxin System” (ACS Central Science, 2023):
pIC50: −log10 of the molar value. Where two headings read alike, the source gives them in different places.

Test system: panel of 140 standard cancer cell lines
Test: ProliFiler-140 cancer cell line screen (CellTiterGlo, 72 h)
Assay type: cell-based
Details: for IC50: read-out: IC50 [M] (ProliFiler-140)
Procedure: Incubations were performed for 72 h before automated viability readout with CellTiterGlo (Figure 8).
End of Figure S11 (part 5 of 5): ProliFiler-140 cancer cell line screening for cytotoxicity of the prodrugs.
8-data-point dose response curves from CellTiter-Glo® viability readout.
ProliFiler-140 cell line panel part V

- IC50 (Homo sapiens, NCI-H2009, NCI-H2009 (Lung)): 1.41e-07 M
- IC50 (Homo sapiens, NCI-H2228, H2228 (Lung)): 5.73e-08 M
- IC50 (Homo sapiens, NCI-H2286, NCI-H2286 (Lung)): 4.4e-08 M
- IC50 (Homo sapiens, NCI-N87, NCI-N87 (Stomach)): 2e-07 M
- IC50 (Homo sapiens, OCI-AML-3, OCI-AML3 (Blood)): 7.6e-08 M
- IC50 (Homo sapiens, OCI-AML-5, OCI-AML5 (Blood)): 3.1e-08 M
- IC50 (Homo sapiens, OCI-LY19, OCI-LY19 (Blood)): 5.55e-09 M
- IC50 (Homo sapiens, OPM-2, OPM-2 (Blood)): 2.43e-07 M
- IC50 (Homo sapiens, OVCAR-3, OVCAR-3 (Ovary)): 3.7e-07 M
- pIC50 (Homo sapiens, OVCAR-3, OVCAR-3, read-out: IC50): 6.43
- IC50 (Homo sapiens, P31-FUJ, P31/FUJ (Blood)): 1e-07 M
- IC50 (Homo sapiens, PANC-1, PANC-1 (Pancreas)): 8e-07 M
- IC50 (Homo sapiens, RL95-2, RL95-2 (Endometrium)): 1.97e-07 M
- IC50 (Homo sapiens, RPMI-8226, RPMI 8226 (Blood)): 8.84e-08 M
- IC50 (Homo sapiens, SAOS-2, Saos-2 EC (Bone)): 2.02e-07 M
- IC50 (Homo sapiens, SCLC-21H, SCLC-21H (Lung)): 2.91e-07 M
- IC50 (Homo sapiens, SJSA-1, SJSA-1 (Bone)): 4.01e-07 M
- IC50 (Homo sapiens, SK-BR-3, SK-BR-3 (Breast)): 1.3e-07 M
- IC50 (Homo sapiens, SK-ES1, SK-ES-1 (Bone)): 2.61e-08 M
- IC50 (Homo sapiens, SK-LU-1, SK-LU-1 (Lung)): 2.7e-07 M
- IC50 (Homo sapiens, SK-MEL3, SK-MEL-3 (Skin)): 5.1e-07 M
- IC50 (Homo sapiens, SK-N-FI, SK-N-FI (Brain)): 1.36e-06 M
- IC50 (Homo sapiens, SK-N-MC, SK-N-MC (Brain)): 1.5e-08 M
- IC50 (Homo sapiens, SK-N-SH, SK-N-SH (Brain)): 9.8e-08 M
- IC50 (Homo sapiens, SK-OV-3, SK-OV3 (Ovary)): 1.76e-07 M
- IC50 (Homo sapiens, SNU1, SNU-1 (Stomach)): 5.9e-08 M
- IC50 (Homo sapiens, SNU-16, SNU-16 (Stomach)): 1.37e-07 M
- IC50 (Homo sapiens, SU-DHL-5, SU-DHL-5 (Blood)): 9.1e-09 M
- IC50 (Homo sapiens, SW480, SW480 (Colon)): 1.2e-07 M
- IC50 (Homo sapiens, SW948, SW948 (Colon)): 3.46e-07 M
- IC50 (Homo sapiens, SW1783, SW-1783 (Brain)): 2.99e-07 M
- IC50 (Homo sapiens, SW-620, SW620 (Colon)): 3.06e-07 M
- IC50 (Homo sapiens, SiHa, SiHa (Ovary)): 1.47e-07 M
- IC50 (Homo sapiens, T47D, T-47D (Breast)): 4.3e-07 M
- IC50 (Homo sapiens, T98G, T98G (Brain)): 1.17e-06 M
- IC50 (Homo sapiens, U2OS, U2OS (Bone)): 1.14e-07 M
- IC50 (Homo sapiens, U-87 MG, U87MG (Brain)): 1.6e-07 M
- IC50 (Homo sapiens, U-118-MG, U118MG (Brain)): 2.57e-07 M
- IC50 (Homo sapiens, U-251, U251MG (Brain)): 7.8e-07 M
- IC50 (Homo sapiens, U-266, U-266 (Blood)): 1.11e-07 M
- IC50 (Homo sapiens, U-937, U-937 (Blood)): 2.57e-08 M
- IC50 (Homo sapiens, ZR-75-1, ZR-75-1 (Breast)): 1.35e-06 M
- IC50 (Ishikawa (Endometrium), listed as Dox): 7.74e-08 M
- IC50 (J82 (Bladder)): 7.98e-07 M
- IC50 (JIMT-1 (Breast), listed as Dox): 1.29e-06 M
- IC50 (Jurkat (Blood), listed as Dox): 4e-08 M
- IC50 (K562 (Blood), listed as Dox): 4.42e-07 M
- IC50 (KG-1 (Blood)): 1.21e-06 M
- IC50 (KG-1 a (Blood), listed as Dox): 4.9e-07 M
- IC50 (Kato III (Stomach), listed as Dox): 8.99e-07 M
- IC50 (LN229 (Brain), listed as Dox): 2.2e-07 M
- IC50 (LOU-NH91 (Lung), listed as Dox): 2.89e-07 M
- IC50 (LOU-NH91, LOU-NH91 (Lung)): 2.9e-07 M
- IC50 (LP-1 (Blood), listed as Dox): 6.62e-07 M
- IC50 (LP-1 (Blood)): 6.6e-07 M
- IC50 (LnCap (Prostate), listed as Dox): 1.92e-07 M
- IC50 (M07e (Blood), listed as Dox): 4.6e-08 M
- IC50 (M-07e, M07e (Blood)): 4.63e-08 M
- IC50 (MCAS (Ovary), listed as Dox): 1.13e-07 M
- IC50 (MCAS (Ovary)): 1.1e-07 M
- IC50 (MDA MB 435 (Skin), listed as Dox): 4.83e-07 M
- IC50 (MDA-MB-468 (Breast), listed as Dox): 4.71e-08 M
- IC50 (MEC-1 (Blood), listed as Dox): 7.33e-08 M
- IC50 (MKN-1 (Stomach), listed as Dox): 5.25e-08 M
- IC50 (MOLM-13 (Blood), listed as Dox): 2.12e-08 M
- IC50 (MV4-11 (Blood), listed as Dox): 4.26e-09 M
- IC50 (Mia PaCA 2 (Pancreas), listed as Dox): 7.4e-08 M
- IC50 (NCI-H82 (Lung), listed as Dox): 6.24e-07 M
- IC50 (NCI-H292 (Lung), listed as Dox): 7.17e-08 M
- IC50 (NCI-H838 (Lung), listed as Dox): 1.51e-07 M
- IC50 (NCI-H1563 (Lung), listed as Dox): 5.43e-07 M
- IC50 (NCI-H1573 (Lung), listed as Dox): 2.97e-06 M
- IC50 (NCI-H1703 (Lung), listed as Dox): 9.24e-08 M
- IC50 (NCI-H1838 (Lung), listed as Dox): 2.52e-07 M
- IC50 (NCI-H2110 (Lung), listed as Dox): 3.55e-08 M
- IC50 (NCI-H2110, NCI-H2110 (Lung)): 3.6e-08 M
- IC50 (NCI-H2286 (Lung), listed as Dox): 4.39e-08 M
- IC50 (OCI-AML5 (Blood), listed as Dox): 3.09e-08 M
- IC50 (OCI-LY19 (Blood), listed as Dox): 5.5e-09 M
- IC50 (OPM-2 (Blood), listed as Dox): 2.4e-07 M
- IC50 (OV56, OV56 (Ovary)): 2.02e-07 M
- IC50 (OVCAR-3 (Ovary), listed as Dox): 3.73e-07 M
- IC50 (OVK18 (Ovary), listed as Dox): 3.4e-08 M
- IC50 (OVK18, OVK18 (Ovary)): 3.42e-08 M
- IC50 (P31/FUJ (Blood), listed as Dox): 1.02e-07 M
- IC50 (PANC-1 (Pancreas), listed as Dox): 8.01e-07 M
- IC50 (PC3 (Prostate), listed as Dox): 7.4e-07 M
- IC50 (PC3 (Prostate)): 7.38e-07 M
- IC50 (PC-9 (Lung), listed as Dox): 1.92e-07 M
- IC50 (PC-9 (Lung)): 1.9e-07 M
- IC50 (RERF-LC-Ad2, RERF-LC-Ad2 (Lung)): 4.6e-07 M
- IC50 (RERF-LC-MS (Lung), listed as Dox): 1.7e-07 M
- IC50 (RERF-LC-MS (Lung)): 1.74e-07 M
- IC50 (RKO (Colon), listed as Dox): 9.9e-08 M
- IC50 (RKO (Colon)): 9.86e-08 M
- IC50 (RPMI 8226 (Blood), listed as Dox): 8.8e-08 M
- IC50 (SCH (Stomach), listed as Dox): 1.38e-07 M
- IC50 (SCH (Stomach)): 1.4e-07 M
- IC50 (SK-BR-3 (Breast), listed as Dox): 1.28e-07 M
- IC50 (SK-LU-1 (Lung), listed as Dox): 2.67e-07 M
- IC50 (SK-MEL-3 (Skin), listed as Dox): 5.12e-07 M
- IC50 (SK-N-FI (Brain), listed as Dox): 1.4e-06 M
- IC50 (SK-N-MC (Brain), listed as Dox): 1.47e-08 M
- IC50 (SK-N-SH (Brain), listed as Dox): 9.82e-08 M
- IC50 (SK-OV3 (Ovary), listed as Dox): 1.8e-07 M
- IC50 (SNU-1 (Stomach), listed as Dox): 5.88e-08 M
- IC50 (SNU-216, SNU-216 (Stomach)): 3.9e-07 M
- IC50 (SNU-840, SNU840 (Ovary)): 1.33e-07 M
- IC50 (SU-DHL-5 (Blood), listed as Dox): 9.15e-09 M
- IC50 (SW-1783 (Brain), listed as Dox): 3e-07 M
- IC50 (T84 (Colon), listed as Dox): 1.4e-06 M
- IC50 (T84 (Colon)): 1.35e-06 M
- IC50 (T-47D (Breast), listed as Dox): 4.35e-07 M
- IC50 (U87MG (Brain), listed as Dox): 1.62e-07 M
- IC50 (U118MG (Brain), listed as Dox): 2.6e-07 M
- IC50 (U251MG (Brain), listed as Dox): 7.84e-07 M
SMILES: COc1cccc2c1C(=O)c1c(O)c3c(c(O)c1C2=O)C[C@@](O)(C(=O)CO)C[C@@H]3O[C@H]1C[C@H](N)[C@H](O)[C@H](C)O1 [doxorubicin, reference compound]
